From ChEMBL document CHEMBL1201862, “PubChem BioAssay data set” (2004)
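Interpolation was linear, between the two tested concentrations surrounding the appropriate level; five concentrations were tested over 48 hours in 96-well plates. GI50: concentration for 50% inhibition of growth.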 Calls of active or inactive are those of the source. Cut-off read from the data, not from the text of the source: active = GI50 up to about 1.1 µM and inactive = higher.

Assays:
Experiment in all cases: inhibition of tumour cell growth, NCI panel, 48 h
SF-295 = system: SF-295
SN12C = system: SN12C
NCI-H226 = system: NCI-H226
A549 = system: A549
HT-29 = system: HT-29
HCC 2998 = system: HCC 2998
786-0 = system: 786-0
UO-31 = system: UO-31
HL-60 = system: HL-60
U-251 = system: U-251
OVCAR-4 = system: OVCAR-4
SK-MEL-5 = system: SK-MEL-5
UACC-257 = system: UACC-257
PC-3 = system: PC-3
MCF7 = system: MCF7
OVCAR-5 = system: OVCAR-5
SK-OV-3 = system: SK-OV-3
COLO 205 = system: COLO 205
Malme-3M = system: Malme-3M
IGROV-1 = system: IGROV-1

Row | SMILES | GI50 (SF-295) | GI50 (SN12C) | GI50 (NCI-H226) | GI50 (A549) | GI50 (HT-29) | GI50 (HCC 2998) | GI50 (786-0) | GI50 (UO-31) | GI50 (HL-60) | GI50 (U-251) | GI50 (OVCAR-4) | GI50 (SK-MEL-5) | GI50 (UACC-257) | GI50 (PC-3) | GI50 (MCF7) | GI50 (OVCAR-5) | GI50 (SK-OV-3) | GI50 (COLO 205) | GI50 (Malme-3M) | GI50 (IGROV-1)
1 | CC(=O)NCCC1CN(C(=O)/C=C/I)c2ccccc21 (configuration not stated) | 15.5 µM (inactive) | 3.93 µM (inactive) | 14.5 µM (inactive) | 17.2 µM (inactive) | 5.51 µM (inactive) | 15.9 µM (inactive) | 1.32 µM (inactive) | 2.89 µM (inactive) | 3.17 µM (inactive) | 10.8 µM (inactive) | 1.96 µM (inactive) | 7.57 µM (inactive) | 7.48 µM (inactive) | 8.81 µM (inactive) | 0.308 µM (active) | 15.8 µM (inactive) | 14.7 µM (inactive) | 3.75 µM (inactive) | 13 µM (inactive) | 6.55 µM (inactive)
2 | COc1ccc2nc3c([N+](=O)[O-])ccc4c3c(c2c1)N=CN4CCN(C)C | 5.57 µM (inactive) | 2.88 µM (inactive) | 4.34 µM (inactive) | 3.44 µM (inactive) | 2.52 µM (inactive) | 3.83 µM (inactive) | 3.61 µM (inactive) | 2.46 µM (inactive) | 0.266 µM (active) | 5.07 µM (inactive) | 9.02 µM (inactive) | 2.53 µM (inactive) | 3.96 µM (inactive) | 4.65 µM (inactive) | 3.3 µM (inactive) | 6.7 µM (inactive) | 9.27 µM (inactive) | 2.34 µM (inactive) | 3.92 µM (inactive) | 2.47 µM (inactive)
3 | CC1=C(CO)C(=O)O[C@@H]([C@@H](C)[C@H]2CC[C@H]3[C@@H]4C[C@@H](O)[C@@]5(O)CC=CC(=O)[C@]5(C)[C@H]4CC[C@]23C)C1 [JABOROSALACTONE D] | 61.5 µM (inactive) | 42.4 µM (inactive) | 35.8 µM (inactive) | 38 µM (inactive) | 33.1 µM (inactive) | 30.3 µM (inactive) | 20.8 µM (inactive) | – | 21.1 µM (inactive) | 37 µM (inactive) | 32.2 µM (inactive) | 32.6 µM (inactive) | > 100 µM (inactive) | 47 µM (inactive) | 39.7 µM (inactive) | > 100 µM (inactive) | 63.8 µM (inactive) | 43.1 µM (inactive) | 15.7 µM (inactive) | 15.1 µM (inactive)
4 | O=C1NC(=S)NC(=O)C1=Cc1cccc2cc3ccccc3cc12 | 2.46 µM (inactive) | 2.32 µM (inactive) | 2.03 µM (inactive) | 3.08 µM (inactive) | 2.13 µM (inactive) | 2.04 µM (inactive) | 1.61 µM (inactive) | 1.95 µM (inactive) | 1.71 µM (inactive) | 1.69 µM (inactive) | 2.28 µM (inactive) | 2.07 µM (inactive) | 1.78 µM (inactive) | 1.74 µM (inactive) | 1.8 µM (inactive) | 2.3 µM (inactive) | 2.83 µM (inactive) | 1.88 µM (inactive) | 2.11 µM (inactive) | 1.67 µM (inactive)
5 | CC(C)[C@@H]1CC[C@@H](C)C[C@H]1OC(=O)c1c2n(c3ccccc13)C[C@H]1OC(C)(C)O[C@@H]21 | 6.46 µM (inactive) | 24.9 µM (inactive) | 22.3 µM (inactive) | 18.9 µM (inactive) | 8.2 µM (inactive) | 26.3 µM (inactive) | 16.5 µM (inactive) | 96.2 µM (inactive) | 5.56 µM (inactive) | 5.14 µM (inactive) | 20.9 µM (inactive) | 5.5 µM (inactive) | 6.95 µM (inactive) | 5.71 µM (inactive) | 14.1 µM (inactive) | > 100 µM (inactive) | 21.3 µM (inactive) | 72.4 µM (inactive) | 7.64 µM (inactive) | 13 µM (inactive)
6 | CO[C@H]1[C@@H](O)[C@@H](C)O[C@@H](O[C@H]2CC[C@@]3(C)[C@H](CC[C@@H]4[C@@H]3CC[C@]3(C)[C@@H](C5=CC(=O)OC5)CC[C@]43O)C2)[C@@H]1O [ODOROSIDE H] | 0.00516 µM (active) | 0.00467 µM (active) | 0.0488 µM (active) | 0.00288 µM (active) | 0.00573 µM (active) | 0.0149 µM (active) | 0.00453 µM (active) | 0.00454 µM (active) | 0.00378 µM (active) | 0.00836 µM (active) | 0.00583 µM (active) | 0.00509 µM (active) | 0.0109 µM (active) | 0.00426 µM (active) | 0.00773 µM (active) | 0.0321 µM (active) | 0.00964 µM (active) | 0.0366 µM (active) | 0.00441 µM (active) | 0.00498 µM (active)
7 | O/N=C(/CC(O)(C(F)(F)F)C(F)(F)F)c1ccccc1 | > 10 µM (inactive) | > 10 µM (inactive) | > 10 µM (inactive) | > 10 µM (inactive) | > 10 µM (inactive) | > 10 µM (inactive) | > 10 µM (inactive) | – | > 10 µM (inactive) | > 10 µM (inactive) | > 10 µM (inactive) | 2.1 µM (inactive) | > 10 µM (inactive) | > 10 µM (inactive) | > 10 µM (inactive) | > 10 µM (inactive) | > 10 µM (inactive) | > 10 µM (inactive) | > 10 µM (inactive) | > 10 µM (inactive)
8 | CN1CC2=C(OC(N)=C(C#N)C2c2cccs2)/C(=C/c2cccs2)C1 (configuration not stated) | 11.6 µM (inactive) | 34.8 µM (inactive) | > 74.1 µM (inactive) | 8.3 µM (inactive) | 12.7 µM (inactive) | 25.6 µM (inactive) | 31.3 µM (inactive) | 34 µM (inactive) | 1.81 µM (inactive) | 8.59 µM (inactive) | 5.52 µM (inactive) | 3.41 µM (inactive) | 9.53 µM (inactive) | 5.31 µM (inactive) | 0.223 µM (active) | > 84.9 µM (inactive) | 55.7 µM (inactive) | 9.08 µM (inactive) | 8.65 µM (inactive) | 15.5 µM (inactive)
9 | c1ccc2cc(CN3CCC(C4CCN(Cc5ccc6ccccc6c5)CC4)CC3)ccc2c1 | 1.9 µM (inactive) | 21.8 µM (inactive) | 11.4 µM (inactive) | 4.2 µM (inactive) | 1.52 µM (inactive) | 1.1 µM (active) | 2.45 µM (inactive) | 1.34 µM (inactive) | 1.53 µM (inactive) | 2.33 µM (inactive) | 6.21 µM (inactive) | 2.06 µM (inactive) | 1.98 µM (inactive) | 9.42 µM (inactive) | 2.06 µM (inactive) | 10.1 µM (inactive) | 10.1 µM (inactive) | 1.76 µM (inactive) | 1.19 µM (inactive) | 6.4 µM (inactive)
10 | CC1=Nc2ccccc2/C1=C\c1c(C)[nH]c2ccccc12 | 18.6 µM (inactive) | 21.4 µM (inactive) | 15.2 µM (inactive) | 23.1 µM (inactive) | 12.8 µM (inactive) | 15.5 µM (inactive) | 12 µM (inactive) | 13.6 µM (inactive) | 5.85 µM (inactive) | 15.9 µM (inactive) | 12.4 µM (inactive) | 14.1 µM (inactive) | 13.2 µM (inactive) | 13.6 µM (inactive) | 4.49 µM (inactive) | 23.4 µM (inactive) | 15.6 µM (inactive) | 19.1 µM (inactive) | 14.1 µM (inactive) | 12.5 µM (inactive)
11 | CCN(CC)C(=O)Cn1c(C)cc2ccccc21 | > 100 µM (inactive) | > 100 µM (inactive) | > 100 µM (inactive) | > 100 µM (inactive) | > 100 µM (inactive) | > 100 µM (inactive) | > 100 µM (inactive) | > 100 µM (inactive) | > 100 µM (inactive) | > 100 µM (inactive) | > 100 µM (inactive) | > 100 µM (inactive) | > 100 µM (inactive) | > 100 µM (inactive) | > 100 µM (inactive) | > 100 µM (inactive) | > 100 µM (inactive) | > 100 µM (inactive) | > 100 µM (inactive) | > 100 µM (inactive)
12 | COc1cccc(Nc2nc(N)nc(N)c2N=O)c1 | 27 µM (inactive) | 17.8 µM (inactive) | 22.5 µM (inactive) | 31 µM (inactive) | 21.8 µM (inactive) | 17.4 µM (inactive) | 19 µM (inactive) | 9.4 µM (inactive) | 19.1 µM (inactive) | 31.8 µM (inactive) | 31.8 µM (inactive) | 18.7 µM (inactive) | 21.3 µM (inactive) | 10.2 µM (inactive) | 3.8 µM (inactive) | 37.8 µM (inactive) | 29.2 µM (inactive) | 24.4 µM (inactive) | 29.2 µM (inactive) | 2.38 µM (inactive)
13 | CCC1CC(C)C(O)/C=C/C=C/CC(C)OC(=O)CC(O)C(OC)C1OC1OC(C)CC(O)(C(C)=O)C1O (configuration not stated) | > 100 µM (inactive) | 42.1 µM (inactive) | 47.6 µM (inactive) | > 100 µM (inactive) | 59.4 µM (inactive) | 21.7 µM (inactive) | > 100 µM (inactive) | 47.3 µM (inactive) | 21.8 µM (inactive) | 60.4 µM (inactive) | 8.47 µM (inactive) | 69 µM (inactive) | 37.9 µM (inactive) | 66.1 µM (inactive) | 40.3 µM (inactive) | > 100 µM (inactive) | > 100 µM (inactive) | 63.1 µM (inactive) | 38.8 µM (inactive) | > 100 µM (inactive)
14 | COc1ccc(/C=C2\N=C(c3ccccc3)N(NC3=NC(=O)CC(=O)N3)C2=O)cc1 | – | > 100 µM (inactive) | > 100 µM (inactive) | > 100 µM (inactive) | > 100 µM (inactive) | > 100 µM (inactive) | > 100 µM (inactive) | > 100 µM (inactive) | > 100 µM (inactive) | > 100 µM (inactive) | > 100 µM (inactive) | > 100 µM (inactive) | > 100 µM (inactive) | > 100 µM (inactive) | 20.4 µM (inactive) | > 100 µM (inactive) | > 100 µM (inactive) | > 100 µM (inactive) | > 100 µM (inactive) | > 100 µM (inactive)
